From patent US10610555B2, “Method for alleviating osteoarthritis by using composite (HL-Joint 100) of achyranthes bidentata, eucommin ulmoides oliver and pomegranate extracts, which has antiinflammatory effect caused by COX2 and PGE2 inhibition, cartilage protective effect caused by MMP-2 and -9 inhibition and cartilage …” (HLSCIENCE CO., LTD., priority 2015, dated 2020)

How the values were obtained:
Type in all cases: in vivo
[1] = tested on: rats with surgically-induced osteoarthritis (OA); test: Osteoarthritis rat model: knee joint thickness; conditions: 200 mg/kg oral (diclofenac 2 mg/kg s.c.); vs OA control group
Experimental: (§1) The osteoarthritis-improving effect of the single or mixed formula of the pomegranate concentrate powder (PCP), the eucommia bark water extract powder (EC) and the achyranthis radix water extract powder (AR) was evaluated. As the representative osteoarthritis (OA) experimental animal model, rats with osteoarthritis (OA) induced by anterior cruciate ligament transaction and partial medial meniscectomy were used [Kim et al., 2012; Kang et al., 2014a; Moon et al., 2014; Choi et al., 2015]. […] In addition, the change in articular cartilage thickness and the number of cyclooxygenase (COX)-2- and tumor necrosis factor (TNF)-α-immunopositive cells in the tibial articular cartilage was monitored [Moore et al. 2005; Kim et al., 2012; Kang et al., 2014a; Choi et al., 2015]. Through this experiment, the anti-inflammatory effect and cartilage-regenerating effect of the pomegranate concentrate powder, the eucommia bark extract and the achyranthis radix extract were evaluated.
(§2) An adequate amount of PCP, EC or AR was dissolved in sterilized distilled water and orally administered at a dosage of 5 mL/kg from 7 days after the osteoarthritis (OA) surgery once a day for 28 days. That is to say, each of the single formulas of PCP, EC and AR and the mixed formulas of PCP and EC:AR (1:1, 1:2, 1:4, 1:6, 1:8, 2:1, 4:1, 6:1 and 8:1) was orally administered at a dosage of 200 mg/kg for 28 days. […]

[2] = tested on: collagen type II mRNA; test: Osteoarthritis rat model: collagen type II mRNA expression in articular cartilage and joint capsule; conditions: OA rats, 200 mg/kg oral 28 days (diclofenac 2 mg/kg s.c.), mean ± SD
Experimental: as §1
An adequate amount of PCP, EC or AR was dissolved in sterilized distilled water and orally administered at a dosage of 5 mL/kg from 7 days after the osteoarthritis (OA) surgery once a day for 28 days. That is to say, each of the single formulas of PCP, EC and AR and the mixed formulas of PCP and EC:AR (1:1, 1:2, 1:4, 1:6, 1:8, 2:1, 4:1, 6:1 and 8:1) was orally administered at a dosage of 200 mg/kg for 28 days. For the sham surgery (sham) and osteoarthritis (OA) control groups, only sterilized distilled water was orally administered instead of the test substances. 2 mg of diclofenac sodium (Wako Pure Chemical Ind. Ltd., Osaka, Japan) dissolved in 5 mL of sterilized physiological saline was subcutaneously administered into the back skin at a dosage of 5 mL/kg (2 mg/kg) from 7 days after the osteoarthritis (OA) surgery once a day for 28 days. The administration dosage was set to 2,000 mg/60 kg×6=200 mg/kg, corresponding to 6 times the expected dosage for human (2,000 mg) in consideration of the body surface area of the rat. […]

[3] = tested on: chondrogenesis-related mRNAs (collagen type II, SOX9 and aggrecan); test: Osteoarthritis rat model: chondrogenesis-related mRNA expression; conditions: diclofenac subcutaneous
Experimental: as §1, §2

[4] = tested on: rats with surgically-induced osteoarthritis (OA); test: Osteoarthritis rat model: BrdU-immunopositive cells (cell proliferation); conditions: vs OA control group
Experimental: as §1, §2

SMILES: O=C(O)Cc1ccccc1Nc1c(Cl)cccc1Cl [Diclofenac, diclofenac sodium]
- knee joint thickness [1]: significant (p<0.01 or p<0.05) decrease in knee joint thickness
- Collagen type II mRNA expressions, Femur AC [2]: 0.69 ± 0.10^ab
- Collagen type II mRNA expressions, Tibia AC [2]: 0.64 ± 0.11^ij
- Collagen type II mRNA expressions, SM ([2]; SM not defined, text speaks of joint capsule): 2.74 ± 0.95^ij
- expression of collagen type II, SOX9 and aggrecan mRNAs in the femoral and tibial articular cartilage [3]: increased expression
- number of BrdU-immunopositive cells in the joint capsule [4]: decrease in the number of BrdU-immunopositive cells in the joint capsule
